In ChEMBL document CHEMBL5512659, “Structure optimizing of flavonoids against both MRSA and VRE” (Eur J Med Chem, 2024):
Activity calls are given as the source filed them. The calls are words filed in the database; no cut-off is given here.

How the values were obtained:
[1] = test system: Enterococcus faecalis; assay: Antibacterial activity against multidrug resistant Enterococcus faecalis ATCC 51299 in presence of 140 mM/L Na+ (reference value: 32 ug/ml); type: functional
[2] = test system: Enterococcus faecalis; assay: Antibacterial activity against multidrug resistant Enterococcus faecalis ATCC 51299 in presence of 4.5 mM/L K+ (reference value: 32 ug/ml); type: functional
[3] = test system: Enterococcus faecalis; assay: Antibacterial activity against multidrug resistant Enterococcus faecalis ATCC 51299 in presence of 2.5 mM/L Ca+ (reference value: 32 ug/ml); type: functional
[4] = test system: Staphylococcus aureus; assay: Antibacterial activity against methicillin resistant Staphylococcus aureus clinical isolate 003 in presence of 1 mM/L Mg2+ (reference value: 1 ug/ml); type: functional
[5] = test system: Enterococcus faecalis; assay: Antibacterial activity against multidrug resistant Enterococcus faecalis ATCC 51299 in presence of 1 mM/L Mg2+ (reference value: 32 ug/ml); type: functional
[6] = test system: Staphylococcus aureus; assay: Antibacterial activity against methicillin resistant Staphylococcus aureus clinical isolate 003 in presence of 4.5 mM/L K+ (reference value: 0.5 ug/ml); type: functional
[7] = test system: Staphylococcus aureus; assay: Antibacterial activity against methicillin resistant Staphylococcus aureus clinical isolate 003 in presence of 2.5 mM/L Ca2+ (reference value: 0.5 ug/ml); type: functional
[8] = test system: Staphylococcus aureus; assay: Antibacterial activity against methicillin resistant Staphylococcus aureus clinical isolate 003 in presence of 140 mM/L Na+ (reference value: 0.25 ug/ml); type: functional
[9] = Toxicity in Galleria mellonella assessed as survival rate at 1.25 to 10 mg/kg observed after 7 days; type: organism-based; conditions: in vivo, dose 1.25-10 mg/kg, time 7 day
[10] = test system: Staphylococcus aureus; assay: Additive antibacterial activity against methicillin resistant Staphylococcus aureus clinical isolate 003 assessed as fractional inhibitory concentration in presence of vancomycin; type: functional
[11] = test system: Staphylococcus aureus; assay: Additive antibacterial activity against methicillin resistant Staphylococcus aureus clinical isolate 003 assessed as fractional inhibitory concentration in presence of chloramphenicol; type: functional
[12] = test system: Staphylococcus aureus; assay: Additive antibacterial activity against methicillin resistant Staphylococcus aureus clinical isolate 003 assessed as fractional inhibitory concentration in presence of azithromycin; type: functional
[13] = test system: Staphylococcus aureus; assay: Synergistic antibacterial activity against methicillin resistant Staphylococcus aureus clinical isolate 003 assessed as fractional inhibitory concentration in presence of streptomycin; type: functional
[14] = test system: Staphylococcus aureus; assay: Synergistic antibacterial activity against methicillin resistant Staphylococcus aureus clinical isolate 003 assessed as fractional inhibitory concentration in presence of tetracycline; type: functional
[15] = test system: Enterococcus faecalis; assay: Additive antibacterial activity against multidrug resistant Enterococcus faecalis ATCC 51299 assessed as fractional inhibitory concentration in presence of lincomycin hydrochloride; type: functional
[16] = test system: Enterococcus faecalis; assay: Additive antibacterial activity against multidrug resistant Enterococcus faecalis ATCC 51299 assessed as fractional inhibitory concentration in presence of chloramphenicol; type: functional
[17] = test system: Enterococcus faecalis; assay: Additive antibacterial activity against multidrug resistant Enterococcus faecalis ATCC 51299 assessed as fractional inhibitory concentration in presence of norfloxacin; type: functional
[18] = test system: Enterococcus faecalis; assay: Synergistic antibacterial activity against multidrug resistant Enterococcus faecalis ATCC 51299 assessed as fractional inhibitory concentration in presence of tetracycline; type: functional
[19] = test system: Enterococcus faecalis; assay: Synergistic antibacterial activity against multidrug resistant Enterococcus faecalis ATCC 51299 assessed as fractional inhibitory concentration in presence of ampicillin; type: functional
[20] = test system: Enterococcus faecalis; assay: Synergistic antibacterial activity against multidrug resistant Enterococcus faecalis ATCC 51299 assessed as fractional inhibitory concentration in presence of adriamycin hydrochloride; type: functional
[21] = test system: Enterococcus faecalis; assay: Synergistic antibacterial activity against multidrug resistant Enterococcus faecalis ATCC 51299 assessed as fractional inhibitory concentration in presence of vancomycin; type: functional
[22] = test system: Staphylococcus aureus; assay: (§1) Antibacterial activity against methicillin resistant Staphylococcus aureus clinical isolate 003 infected in cyclophosphamide immunosuppressed mouse model of skin wound infection assessed as wound healing at 1.25 to 5 mg/kg administered for 7 days and measured on day 8; type: functional, organism-based; conditions: dose 1.25-5 mg/kg, time 8.0 day
[23] = test system: Staphylococcus aureus; assay: as §1, with “healing by measuring wound area” for “healing”, “at” for “at 1.25 to”, “8 (reference value: 32.1 […])” for “8”; type: functional; conditions: time 8 day
[24] = test system: Staphylococcus aureus; assay: Antibacterial activity against methicillin resistant Staphylococcus aureus clinical isolate 003 infected in cyclophosphamide immunosuppressed mouse model of skin wound infection assessed as reduction in bacterial load in wound at 1.25 mg/kg administered for 7 days and measured on day 8 (reference value: 1.6 x 10^8 CFU); type: functional; conditions: time 8 day
[25] = test system: Enterococcus faecalis; assay: Antibacterial activity against multidrug resistant Enterococcus faecalis ATCC 51299 infected in cyclophosphamide immunosuppressed mouse model of abdominal infection assessed as eradication of bacterial colonies in liver at 1.25 to 5 mg/kg measured after 60 hrs relative to control; type: functional; conditions: dose 1.25-5 mg/kg
[26] = test system: Enterococcus faecalis; assay: Antibacterial activity against multidrug resistant Enterococcus faecalis ATCC 51299 infected in cyclophosphamide immunosuppressed mouse model of abdominal infection assessed as eradication of bacterial colonies in spleen at 1.25 to 5 mg/kg measured after 60 hrs relative to control; type: functional; conditions: dose 1.25-5 mg/kg
[27] = test system: Enterococcus faecalis; assay: Antibacterial activity against multidrug resistant Enterococcus faecalis ATCC 51299 infected in cyclophosphamide immunosuppressed mouse model of abdominal infection assessed as reduction in abscess at 1.25 to 5 mg/kg measured after 60 hrs by H and E staining based analysis; type: functional, organism-based; conditions: dose 1.25-5 mg/kg
[28] = test system: Enterococcus faecalis; assay: Antibacterial activity against multidrug resistant Enterococcus faecalis ATCC 51299 infected in cyclophosphamide immunosuppressed mouse model of abdominal infection assessed as reduction in inflammatory infiltration at 1.25 to 5 mg/kg measured after 60 hrs by H and E staining based analysis; type: functional, organism-based; conditions: dose 1.25-5 mg/kg

## CCCCCCc1c(-c2ccc(OCC(=O)CN[C@H](CCCNC(=N)N)C(=O)OC)cc2OCC(=O)CN[C@H](CCCNC(=N)N)C(=O)OC)oc2cc(OC)cc(O)c2c1=O
[1]
  MIC: 32 µg/mL
[2]
  MIC: 32 µg/mL
[3]
  MIC: 32 µg/mL
[4]
  MIC: 1 µg/mL
[5]
  MIC: 32 µg/mL

## CCCCCCc1c(-c2ccc(OCCCCN(C)C)cc2OCCCCN(C)C)oc2cc(OC)cc(O)c2c1=O
[6]
  MIC: 0.5 µg/mL
[7]
  MIC: 1 µg/mL

## CCCCCCc1c(-c2ccc(OCCCCNCCCN)cc2OCCCCNCCCN)oc2cc(OC)cc(O)c2c1=O
[8]
  MIC: 0.25 µg/mL
[9]
  survival at 168 h: 100%
[10]
  fractional inhibitory concentration index (FICI): 1
[11]
  fractional inhibitory concentration index (FICI): 1
[12]
  fractional inhibitory concentration index (FICI): 0.75
[13]
  fractional inhibitory concentration index (FICI): 0.375
[14]
  fractional inhibitory concentration index (FICI): 0.375
[15]
  fractional inhibitory concentration index (FICI): 1
[16]
  fractional inhibitory concentration index (FICI): 0.75
[17]
  fractional inhibitory concentration index (FICI): 1
[18]
  fractional inhibitory concentration index (FICI): 0.25
[19]
  fractional inhibitory concentration index (FICI): 0.375
[20]
  fractional inhibitory concentration index (FICI): 0.5
[21]
  fractional inhibitory concentration index (FICI): 0.375
[22]
  Activity: Active
[23]
  Activity: 2.1 mm²
[24]
  Activity: 9.2 10^6CFU
[25]
  Activity: 97%
[26]
  Activity: 95.5%
[27]
  Activity: Active
[28]
  Activity: Active
